Results: ChEMBL document CHEMBL1201862, “PubChem BioAssay data set” (2004)
Counter-ions that a name gives are not always drawn. Calls of active or inactive are those of the source.

Assays:
[1] = luciferase reporter signal suppression in cells – H4 neuroglioma cells, luminescence, dose response (AID 1990); assay type: functional, cell-based
[2] = biological target: Sphingosine 1-phosphate receptor 2 (Homo sapiens, UniProt O95136); experiment: Dose Response Cell Based Assay for Antagonists of the S1P2 Receptor. [Related pubchem assays: 856, 736 ]; assay type: functional
Sequence of Sphingosine 1-phosphate receptor 2 (O95136 whole entry): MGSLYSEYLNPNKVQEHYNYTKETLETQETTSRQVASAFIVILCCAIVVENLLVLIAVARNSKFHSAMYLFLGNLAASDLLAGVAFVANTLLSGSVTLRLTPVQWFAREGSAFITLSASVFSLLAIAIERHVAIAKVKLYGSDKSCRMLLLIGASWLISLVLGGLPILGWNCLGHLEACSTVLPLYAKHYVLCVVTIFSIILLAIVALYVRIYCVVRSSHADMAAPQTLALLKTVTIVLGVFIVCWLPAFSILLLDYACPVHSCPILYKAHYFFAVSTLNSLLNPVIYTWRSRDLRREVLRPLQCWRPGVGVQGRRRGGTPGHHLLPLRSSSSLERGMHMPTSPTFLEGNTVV

[3] = Luminescence Cell-Based Dose Response HTS to Identify Inhibitors of 5'UTR Stem-Loop Driven Prion Protein mRNA Translation in H4 Neuroglioblastoma Cells. [Related pubchem assays: 1827 (Project Summary), 1813 (Primary HTS)]; assay type: functional
[4] = alpha-synuclein stem-loop luciferase translation blockers – H4 neuroglioma cells, luminescence, confirmation (AID 1988); assay type: functional, cell-based
[5] = biological target: T1, Mannose-6-phosphate isomerase (Homo sapiens, UniProt P34949); experiment: MPI inhibition at elevated mannose 6-phosphate – biochemical, fluorescence intensity, high mannose 6-phosphate, primary screen (AID 1220)
T1 sequence (P34949 whole entry): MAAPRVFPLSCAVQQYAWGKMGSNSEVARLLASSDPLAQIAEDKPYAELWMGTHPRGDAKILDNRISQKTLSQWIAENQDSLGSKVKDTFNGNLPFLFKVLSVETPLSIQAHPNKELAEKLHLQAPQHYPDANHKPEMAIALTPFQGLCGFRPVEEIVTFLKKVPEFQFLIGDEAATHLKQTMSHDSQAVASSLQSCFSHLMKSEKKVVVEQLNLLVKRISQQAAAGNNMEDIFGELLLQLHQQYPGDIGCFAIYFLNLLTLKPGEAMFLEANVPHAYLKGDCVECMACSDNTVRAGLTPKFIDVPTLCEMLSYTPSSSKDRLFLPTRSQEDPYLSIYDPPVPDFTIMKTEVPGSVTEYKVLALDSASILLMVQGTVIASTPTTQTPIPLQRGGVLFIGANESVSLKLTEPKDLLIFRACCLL

[6] = Luminescence Cell-Based Dose Retest to Confirm Inhibitors of Cancer Stem Cells. [Related pubchem assays (depositor defined):AID2717, AID2721]; assay type: functional; settings: Homo sapiens
fMet-Leu-Phe receptor = biological target: T2, fMet-Leu-Phe receptor (Homo sapiens, UniProt P21462); experiment: formyl peptide receptor binders – dose response (AID 519); assay type: functional
T2 sequence (P21462 whole entry): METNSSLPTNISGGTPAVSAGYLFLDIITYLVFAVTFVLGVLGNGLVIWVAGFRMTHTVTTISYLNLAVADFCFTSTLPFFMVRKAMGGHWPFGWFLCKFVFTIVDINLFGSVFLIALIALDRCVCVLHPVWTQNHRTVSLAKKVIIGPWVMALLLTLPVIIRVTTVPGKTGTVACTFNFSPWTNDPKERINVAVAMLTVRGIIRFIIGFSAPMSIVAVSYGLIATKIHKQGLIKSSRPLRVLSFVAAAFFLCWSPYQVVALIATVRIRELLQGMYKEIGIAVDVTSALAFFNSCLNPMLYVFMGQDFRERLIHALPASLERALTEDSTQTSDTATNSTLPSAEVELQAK

[7] = CellTiter-Glo luminescence survival assay, SW480 colon tumor line, concentration-response curve, half-maximal inhibitory concentration (AID 1117338); assay type: functional
[8] = RKO cell viability reduction, dose response, CellTiter-Glo luminescence (AID 1117322); assay type: functional
[9] = SNU-C1 cell viability reduction, dose response, CellTiter-Glo luminescence (AID 1117323); assay type: functional, cell-based
[10] = cytotoxicity toward Colo320 cells – cell-based, CellTiter-Glo luminescence, IC50, dose response (AID 1117334); assay type: functional; settings: COLO 320
[11] = cytotoxicity toward HT-29 cells – cell-based, CellTiter-Glo luminescence, IC50, dose response (AID 1117330); assay type: functional
[12] = Reduced DLD-1 viability, concentration-response, CellTiter-Glo luminescence (AID 1117352); assay type: functional
[13] = HCT116 cell viability decrease, GSK3B pretreatment – CellTiter-Glo, IC50, dose response (AID 1117339); assay type: functional; settings: HCT-116
[14] = biological target: Mitogen-activated protein kinase 10 (Homo sapiens, UniProt P53779); experiment: Dose response biochemical screening assay for inhibitors of c-Jun N-Terminal Kinase 3 (JNK3). [Related pubchem assays: 746 ]
Sequence of Mitogen-activated protein kinase 10 (P53779 whole entry): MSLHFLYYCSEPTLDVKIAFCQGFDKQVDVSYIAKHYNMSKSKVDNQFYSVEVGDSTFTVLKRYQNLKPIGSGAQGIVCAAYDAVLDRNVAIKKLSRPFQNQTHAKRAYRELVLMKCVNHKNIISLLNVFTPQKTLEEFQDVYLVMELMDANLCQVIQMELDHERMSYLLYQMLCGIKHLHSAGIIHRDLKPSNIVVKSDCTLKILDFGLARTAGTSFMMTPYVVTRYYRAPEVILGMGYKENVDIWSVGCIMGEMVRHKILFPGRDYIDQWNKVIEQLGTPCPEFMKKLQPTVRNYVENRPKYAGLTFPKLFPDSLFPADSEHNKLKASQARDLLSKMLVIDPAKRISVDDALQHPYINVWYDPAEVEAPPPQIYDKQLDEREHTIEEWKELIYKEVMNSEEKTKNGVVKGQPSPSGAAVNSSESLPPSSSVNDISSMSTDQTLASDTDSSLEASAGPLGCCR

[15] = cytotoxicity toward HCT116 cells – cell-based, CellTiter-Glo luminescence, IC50, dose response (AID 1117332); assay type: functional; settings: HCT-116
[16] = A549 cell cytotoxicity, dose response, cytotoxicity control, plate reader, cherry-pick, antagonist series (AID 743412); assay type: functional, cell-based
[17] = toxicity toward HepG2 liver cells – cell-based, plate reader, cherry-pick, antagonist series, cytotoxicity control, dose response (AID 743416); assay type: functional
[18] = blockers of bursicon-stimulated LGR2 cAMP reporter – cell-based, HEK293, CRE-luciferase reporter, cherry pick, set 2, dose response (AID 743343); assay type: functional;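 note: transfected cells were stimulated with diluted bursicon conditioned medium after compound addition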
[19] = Dd2 parasite growth inhibition in erythrocytes – SYBR Green, dry powder samples, set 9, dose response (AID 1159568); assay type: functional, cell-based
[20] = glucagon-like peptide-1 release potency in STC-1, concentration-response, half-maximal inhibitory concentration in the STC-1 line (AID 1117345); assay type: functional, cell-based
[21] = Potency on glucagon-like peptide 1 release, dose-response in NCI-H716 cell line, half maximal inhibitory concentration (AID 1117344); assay type: functional, cell-based
[22] = growth inhibition of yeast DHODH-expressing 3D7 parasites – SYBR Green, dry powder samples, dose response (AID 1159570); assay type: functional, cell-based;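 note: parasite growth measured after 72 hours of compound exposure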
[23] = toxicity to human HepG2 hepatoma cells – cell-based, plate reader, dry powder samples, cytotoxicity control, dose response (AID 1159569); assay type: functional;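 note: inhibitor potency with signal falling toward the positive control level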
[24] = P. falciparum Dd2 growth inhibitors, dose response, SYBR Green, cherry-picked samples (AID 1159567); assay type: functional, cell-based
[25] = Dd2 malaria parasite growth inhibition potency – SYBR Green, dry powder samples, dose response (AID 1159566); assay type: functional, cell-based;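 note: potency for growth inhibition with lower SYBR green DNA signal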
[26] = toxicity to human hepatoma HepG2 cells – cell-based, cherry-picked samples, cytotoxicity control, dose response (AID 1159577); assay type: functional
[27] = growth inhibition of PfATP4-mutant resistant parasites – NITD609-resistant line, SYBR Green, dry powder, dose response (AID 1159571); assay type: functional, cell-based;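 note: parasites synchronized at ring stage by sorbitol before testing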
[28] = blockade of melanocortin 4 receptor signaling – cell-based, plate reader, cherry pick, counter-screen for LGR2 antagonist project, dose response (AID 743444); assay type: functional;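 note: transfected HEK 293 cells stimulated with alpha-MSH peptide; potency of inhibitors of the alpha-MSH evoked signal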
Paired box protein Pax-8 = Paired box protein Pax-8 (Homo sapiens, UniProt Q06710); experiment: PAX8 transcriptional activity inhibition in RMG-I – RMG-I cells, luciferase, cherry-pick, dose response (AID 687027); assay type: functional, cell-based;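 note: luciferase reporter driven by Pax8 target thyroperoxidase promoter measured by SteadyGlo luminescence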
Sequence of Paired box protein Pax-8 (Q06710 whole entry): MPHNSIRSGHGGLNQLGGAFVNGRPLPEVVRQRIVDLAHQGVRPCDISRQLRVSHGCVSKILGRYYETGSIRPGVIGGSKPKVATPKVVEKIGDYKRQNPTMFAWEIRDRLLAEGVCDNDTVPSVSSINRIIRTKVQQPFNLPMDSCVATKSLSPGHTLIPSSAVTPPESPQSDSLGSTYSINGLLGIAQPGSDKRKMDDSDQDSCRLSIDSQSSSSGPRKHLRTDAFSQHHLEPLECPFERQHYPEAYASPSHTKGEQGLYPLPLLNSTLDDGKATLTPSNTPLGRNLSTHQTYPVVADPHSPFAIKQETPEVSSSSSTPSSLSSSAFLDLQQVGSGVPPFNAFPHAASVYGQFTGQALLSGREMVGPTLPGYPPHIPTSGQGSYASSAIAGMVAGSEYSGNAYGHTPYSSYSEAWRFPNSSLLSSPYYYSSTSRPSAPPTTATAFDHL

[29] = OVCAR-3 cell viability loss – plate reader, dry powder samples, PAX8 inhibitor project, dose response (AID 743044); assay type: functional, cell-based
[30] = OVCAR8 cell viability loss – plate reader, dry powder samples, PAX8 project, dose response (AID 743197); assay type: functional, cell-based; settings: OVCAR-8
[31] = NIH-3T3 fibroblast cytotoxicity, dose response, cytotoxicity control, cell-based, fluorescence, Alamar Blue, secondary assay (AID 2327); assay type: functional;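 note: NIH-3T3 mouse fibroblasts cultured with fluconazole at 8 µg/mL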
[32] = fluconazole-exposed Candida albicans growth modulators – fluorescence, retest, confirmation (AID 2467); assay type: functional, cell-based
[33] = microbe, parasite or virus in culture; assay type: functional; settings: Mycobacterium tuberculosis
[34] = THP-1 cell cytotoxicity, dose response, cytotoxicity control for non-replicating M. tuberculosis project (AID 489025); assay type: functional
[35] = HepG2 cell cytotoxicity, dose response, cytotoxicity control for non-replicating M. tuberculosis project (AID 489018); assay type: functional; settings: Mycobacterium tuberculosis
[36] = Vero E6 cell cytotoxicity, dose response, cytotoxicity control for non-replicating M. tuberculosis project, secondary assay (AID 492998); assay type: functional, VeroE6; settings: Vero C1008
cells = assay type: functional
INS1 = experiment: INS-1E survival protection against cytokine death – cell-based, luminescence, retest, dose response (AID 449756); assay type: functional; settings: Rattus norvegicus;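 note: cell death triggered by IL-1 beta plus TNF-alpha plus IFN-gamma mixture; protective hits raise ATP signal compared with cytokine alone wells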

O=C(c1cc(NC(=O)C23CC4CC(CC(C4)C2)C3)cc(NC(=O)C23CC4CC(CC(C4)C2)C3)c1)N1CCCCC1
EC50 [1]: 17.1 µM (active) | IC50 [2]: 0.977 µM (active) | EC50 [3]: 15.7 µM (active) | EC50 [4]: 12.2 µM (inconclusive)

O=C(NCCN1CCOCC1)NC1(C(F)(F)F)Oc2ccc(Cl)cc2O1 (stereo unspecified)
IC50 [5]: > 50 µM (not active) | AC50 [6]: 7.37 µM (active) | Ki (fMet-Leu-Phe receptor): > 66.7 µM (inactive)

O=C(NC1CCN(CCc2c[nH]c3ccccc23)CC1)c1ccccc1 [INDORAMIN HYDROCHLORIDE]
IC50 [7]: > 20 µM (inactive) | IC50 [8]: > 20 µM (inactive) | IC50 [9]: > 20 µM (inactive) | IC50 [10]: > 20 µM (inactive) | IC50 [11]: > 20 µM (inactive) | IC50 [12]: > 20 µM (inactive) | IC50 [13]: > 20 µM (inactive)

Cc1ccccc1Nc1nn2c(=O)c3ccccc3nc2s1
IC50 [14]: 39.3 µM (not active)

CN1CCN(c2cc3c(nn2)Oc2ccccc2N3C)CC1 [PIPOFEZINE]
IC50 [7]: > 20 µM (inactive) | IC50 [8]: > 20 µM (inactive) | IC50 [15]: > 20 µM (inactive) | IC50 [9]: > 20 µM (inactive) | IC50 [10]: > 20 µM (inactive) | IC50 [11]: > 20 µM (inactive) | IC50 [12]: > 20 µM (inactive) | IC50 [13]: > 20 µM (inactive)

N#CCCC12CCCCC1=Nc1ccccc12 (stereo unspecified)
IC50 [14]: > 93.1 µM (not active)

O=C(C[C@@H]1C[C@H]2c3cc(NC(=O)c4ccc5c(c4)OCO5)ccc3O[C@H]2[C@@H](CO)O1)NCc1ccc(Oc2ccccc2)cc1
AC50 [16]: 35.3 µM (active) | AC50 [17]: 20.5 µM (active) | AC50 [18]: 32.7 µM (active) | AC50 [19]: > 39 µM (inactive)

C#CC1(O)CC[C@H]2[C@@H]3CCC4=CCCC[C@@H]4[C@H]3CC[C@@]21C (stereo partly specified)
IC50 [20]: > 40 µM (inactive) | IC50 [21]: 27.5 µM (inactive)

C[C@@H]1CN([C@H](C)CO)S(=O)(=O)c2ccc(C#Cc3ccncc3)cc2O[C@H]1CN(C)S(=O)(=O)c1ccc(F)cc1
AC50 [22]: 0.682 µM (active) | AC50 [23]: 3.66 µM (active) | AC50 [24]: 2.17 µM (active) | AC50 [25]: 1.14 µM (active) | AC50 [26]: > 39 µM (inactive) | AC50 [27]: 1.17 µM (active)

Clc1ccc(C(Cn2ccnc2)OCc2ccc(Sc3ccccc3)cc2)c(Cl)c1 (stereo unspecified) [FENTICONAZOLE]
IC50 [7]: 7.44 µM (inactive) | IC50 [8]: 6.14 µM (inactive) | IC50 [15]: 7.71 µM (inactive) | IC50 [10]: 7.06 µM (inactive) | IC50 [11]: > 20 µM (inactive) | IC50 [12]: 7.76 µM (inactive) | IC50 [13]: 6.77 µM (inactive)

C[C@@H]1CN([C@@H](C)CO)C(=O)c2cccc(NC(=O)c3ccc(-c4nccs4)cc3)c2O[C@@H]1CN(C)C(=O)Nc1ccc(C(F)(F)F)cc1
AC50 [16]: 25.5 µM (active) | AC50 [17]: 33.2 µM (active) | AC50 [18]: 43.7 µM (active) | AC50 [28]: 54.1 µM (active) | AC50 [19]: 2.16 µM (active)

C[C@@H]1CN([C@@H](C)CO)C(=O)Cc2cc(NC(=O)Cc3cn(C)c4ccccc34)ccc2O[C@H]1CN(C)Cc1ccc(Oc2ccccc2)cc1
AC50 (Paired box protein Pax-8): 7.45 µM (active) | AC50 [29]: 22.6 µM (active) | AC50 [30]: 43.1 µM (active) | AC50 [22]: 1.6 µM (active) | AC50 [23]: 22.2 µM (active) | AC50 [24]: 1.34 µM (active) | AC50 [25]: 1.05 µM (active) | AC50 [26]: > 39 µM (inactive) | AC50 [27]: 1.65 µM (active)

COc1ccc(CNC(=O)c2cnn3c(C(F)F)cc(C)nc23)cc1OC
IC50 [14]: > 31 µM (not active)

OC1(c2ccc(Cl)c(C(F)(F)F)c2)CCN(CCCC(c2ccc(F)cc2)c2ccc(F)cc2)CC1 [PENFLURIDOL]
IC50 [8]: 0.971 µM (active) | IC50 [15]: 1.85 µM (active) | IC50 [9]: 0.168 µM (active) | IC50 [20]: > 40 µM (inactive) | IC50 [10]: 0.962 µM (active) | IC50 [11]: 0.946 µM (active) | IC50 [12]: 1.14 µM (active) | IC50 [21]: 8.45 µM (inactive)

Cc1ccc(S(=O)(=O)N(C)C[C@H]2Oc3cc(C#CC4CCCC4)ccc3S(=O)(=O)N([C@@H](C)CO)C[C@H]2C)cc1
AC50 [19]: 3.42 µM (active)

CCOC(=O)N1CCN(Cc2cc(Cl)c3cccnc3c2O)CC1
EC50 [31]: > 150 µM (inactive) | EC50 [32]: 1.28 µM (active) | CC50 [33]: 4.95 µM (active) | IC50 [5]: 11.8 µM (active) | CC50 [34]: 4.35 µM (active) | CC50 [35]: 11 µM (active) | CC50 [36]: 2.64 µM (active) | IC50 (cells): 10.9 µM (active) | AC50 (INS1): 3.13 µM (active)
